Where two headings read alike, the source gives them in different places. Marks after values point to notes of the source that are not given here.
Key:
[1] = tested on: potato microtubers of cvs. Onaway and Goldrush; assay: H2O2 hormesis: microtuber mass / yield; settings: for Microtuber mass: mean of 20 containers
Protocol: (1994). […] Cultures were placed into a growth chamber adjusted to 20±2° C. under 85 μmol m^-2s^-1 cool white florescent illumination with 16:8 h day:night cycle. Phase I promoted the vegetative growth of plantlets which was luxurious after 4 weeks. In Phase II, the residual medium was drained and replaced with 150 ml of liquid induction medium containing increased sucrose (80 gl^-1) and no growth regulators. Phase II incubation occurred at cooler temperature (15±2° C.), under reduced illumination (50 μmol m^-2s^-1), and reversed (8:16 h) day:night cycle. […] Phase II plantlets of cvs. […] At harvest, microtubers of cvs. […] (2007).

[2] = tested on: potato microtubers of cvs. Onaway and Goldrush; assay: H2O2 hormesis: antioxidant capacity (DPPH) of in vitro-grown microtubers; settings: for DPPH total antioxidant capacity of microtubers: mean ± SE (n = 5)
Protocol: Plantlets of cvs. Onaway and Goldrush were selected for their relatively high concentrations of antioxidants in field-grown tubers. […] Medium consisted of basal salt solution and organic fraction solidified with 7 g 1^-1 agar ([…]) adjusted to pH 5.7 before autoclaving at 121° C. for 20 min. […] (1994). […] Phase I promoted the vegetative growth of plantlets which was luxurious after 4 weeks. In Phase II, the residual medium was drained and replaced with 150 ml of liquid induction medium containing increased sucrose (80 gl^-1) and no growth regulators. […] Phase II plantlets of cvs. […] At harvest, microtubers of cvs. […] (2007).

[3] = tested on: potato microtubers of cvs. Onaway and Goldrush; assay: H2O2 hormesis: total phenolic content of microtubers (Folin-Ciocalteu); settings: for Total phenolics (Folin-Ciocalteu) of microtubers: mean ± SE (n = 5)
Protocol: (§1) Based on a preliminary study, concentrations of 2 and 4 mM H2O2 and spray volume of ˜6 ml were selected for hormetic treatments. Phase II plantlets of cvs. Onaway and Goldrush (at 2- and 3-weeks) were treated with three concentrations (0, 2, 4 mM) of H2O2 with 5 replicates×4 containers per replicate (20 containers per treatment). Results were analyzed for variance (ANOVA) test using General Linear Model (GLM) of Statistical Analysis System (SAS) (SAS v 9.2, 2010) (SAS Institute Inc., Cary, N.C., USA). Means were compared using Duncan's Multiple Comparison test (P≦0.05).
(§2) At harvest, microtubers of cvs. Onaway and Goldrush were weighed, and averaged from 20 separate containers. For each replicate, microtubers were pooled for analysis, for a total of 5 samples per treatment/cultivar.

[4] = tested on: potato microtubers of cvs. Onaway and Goldrush; settings: for Increase of ascorbic acid content in comparison to control: cv. Goldrush microtubers; for Ascorbic acid of microtubers / Caffeic acid of microtubers / Chlorogenic acid of microtubers: mean ± SE (n = 5)
Protocol: as §1, §2

[5] = HPLC quantification of ascorbic acid, chlorogenic acid, caffeic acid, ferulic acid and rutin in tubers, tuber tissues and extracts; settings: for % reduction; from 1 to 7 months storage (HPLC content): tubers of 12 Canadian-grown cultivars, cold storage
Protocol: This assay was based on the method developed by Shakya and Navarre (J Agric Food Chem (2006) 54:5253-5260). Initially, samples (50 mg of freeze-dried powder) were extracted in 0.9 mL of extraction buffer (50% MeOH, 2.5% metaphosphoric acid, 1 mM EDTA) in a 2 mL screw cap tube. Samples were vortexed for 30 sec and centrifuged at 11,070×g for 15 min at 4° C. The supernatant was transferred to a 1.5 mL glass vial. The remaining pellet was re-extracted with 0.6 mL of extraction buffer and centrifuged. The supernatants were combined and concentrated in a Speed Vac (Thermo Savant SC 210A, Waltham, Mass.). The concentrated samples were solubilised with 500 mL of extraction buffer and filtered using 0.45 mm membrane filters (Durapore, PVDF) into 1 mL HPLC glass vials. Samples were kept chilled at all times and shielded from bright light. Samples were analyzed using a Varian HPLC system with a quaternary gradient pump, a single wavelength UV/VIS detector, and an autosampler with refrigerated sample compartment (Varian Canada Inc, Mississauga, ON). Samples were eluted using an Onyx reverse-phase HPLC column (100×4.5 mm) (Phenomenex, Netherlands), a solvent flow rate of 2 mL/min and a solvent gradient of 0-1 min 100% buffer A (10 mM formic acid, pH 3.5, with NH4OH), 1-5 min 0-30% buffer B (100% methanol with 5 mM ammonium formate), 5-6.5 min 40-0% buffer B, 6.5-8.5 min 70-100% buffer B. The phenolic acids in the samples were analyzed qualitatively and quantitatively using standards.
Ascorbic acid concentration was also determined as it is also an important antioxidant compound present in potato. HPLC determination is based on the retention time of a particular compound within a mixed sample in the column compared with purchased pure standards. Three different buffers (Buffer A, Buffer B, & Extraction buffer) were prepared. Buffer A was 10 mM formic acid (Fisher Scientific, ON, Canada) (0.46 g of formic acid in 1 L distilled water adjusted to pH 3.5 using 1M NH4OH solution). Buffer A was kept in a fridge (4° C.) until used. Buffer B was 5 mM ammonium formate (Sigma-Aldrich Chemicals, Germany) (0.32 g of ammonium formate in 1 L 100% methanol with agitation on a magnetic stirrer as ammonium formate is highly insoluble). Buffer B was also refrigerated. The extraction buffer was 50% methanol (Fisher Scientific, ON, Canada), 2.5% metaphosphoric acid (Aldrich Chemicals, WI, USA) and 1 mM ethylenediaminetetraacetic acid (EDTA; Sigma-Aldrich Chemicals, Germany) (50 ml of 100% methanol, 2.5 g of metaphosphoric acid, and 0.4 g of EDTA in 100 ml distilled water with stirring followed by filtering using a cup filter (Millipore Corporation, MS, USA). The extraction buffer was also refrigerated. […]

[6] = tested on: IL-8 release in Caco-2 cell cultures; settings: cited from earlier work
[7] = tested on: male mice; settings: high fat diet, 1 g/kg diet; cited from earlier work
[8] = tested on: C57BL/6J mice with diet-induced obesity; assay: Body weight gain in high fat diet feeding study (10 wk); assay type: in vivo; settings: for Body weight gain: mean ± SD (n = 3-5)
[9] = tested on: carnitine palmitoyltransferase; settings: cited from earlier work
[10] = tested on: C57BL/6J mice with diet-induced obesity; assay: Blood glucose concentration at the end of the HFD feeding period; settings: mean ± SD (n = 3-5)
[11] = Females, HFD + 1X (1x CGA 8 mg/kg HFD; 1x FA 20 mg/kg HFD)
[12] = Females, HFD + 5X (1x CGA 8 mg/kg HFD; 1x FA 20 mg/kg HFD)
[13] = Females, HFD + 25X (1x CGA 8 mg/kg HFD; 1x FA 20 mg/kg HFD)
[14] = Males, HFD + 1X (1x CGA 8 mg/kg HFD; 1x FA 20 mg/kg HFD)
[15] = Males, HFD + 5X (1x CGA 8 mg/kg HFD; 1x FA 20 mg/kg HFD)
[16] = Males, HFD + 25X (1x CGA 8 mg/kg HFD; 1x FA 20 mg/kg HFD)

In the case of `OO` [H2O2, Hydrogen peroxide], the “Effect on microtuber yield” value ([1]; at the dosage applied (2, 4 mM)) was “did not affect yield”, the Microtuber mass ([1]; cv. Goldrush, 2 mM H2O2 spray) was 10.25^a g and the Microtuber mass ([1]; cv. Goldrush, 4 mM H2O2 spray) was 10.26^a g. For the same compound, the Microtuber mass ([1]; cv. Onaway, 2 mM H2O2 spray) was 5.09^a g, the Microtuber mass ([1]; cv. Onaway, 4 mM H2O2 spray) was 5.07^a g and the “Increase of antioxidant capacity (DPPH) over control” value (“Increase of antioxidant capacity” below) ([2]; cv. Goldrush microtubers, 2 mM H2O2 spray) was 26%. For the same compound, the “Increase of antioxidant capacity” value ([2]; cv. Goldrush microtubers, 4 mM H2O2 spray) was 20%, the “DPPH total antioxidant capacity of microtubers” value (“DPPH total antioxidant capacity” below) ([2]; cv. Goldrush, 2 mM H2O2 spray) was 1.316 ± 0.02^a mg/g and the “DPPH total antioxidant capacity” value ([2]; cv. Goldrush, 4 mM H2O2 spray) was 1.214 ± 0.04^b mg/g. For the same compound, the “Increase of antioxidant capacity” value ([2]; cv. Onaway microtubers, 2 or 4 mM H2O2) was 12-14%, the “DPPH total antioxidant capacity” value ([2]; cv. Onaway, 2 mM H2O2 spray) was 0.862 ± 0.02^a mg/g and the “DPPH total antioxidant capacity” value ([2]; cv. Onaway, 4 mM H2O2 spray) was 0.882 ± 0.04^a mg/g. For the same compound, the “Total phenolics (Folin-Ciocalteu) of microtubers” value (“Total phenolics (Folin-Ciocalteu)” for short) ([3]; cv. Goldrush, 2 mM H2O2 spray) was 7.076 ± 0.01^a mg/g, the “Total phenolics (Folin-Ciocalteu)” value ([3]; cv. Goldrush, 4 mM H2O2 spray) was 6.354 ± 0.00^a mg/g and the “Total phenolics (Folin-Ciocalteu)” value ([3]; cv. Onaway, 2 mM H2O2 spray) was 4.376 ± 0.00^a mg/g. For the same compound, the “Total phenolics (Folin-Ciocalteu)” value ([3]; cv. Onaway, 4 mM H2O2 spray) was 3.789 ± 0.00^a mg/g, the “Effect on total polyphenolic levels (Folin-Ciocalteu)” value ([3]; either cultivar, 2 and 4 mM) was “not significantly affected” and the “Increase of ascorbic acid content in comparison to control” value ([4]; 2 mM) was 35%. For the same compound, the “Increase of ascorbic acid content in comparison to control” value ([4]; 4 mM) was 34%, the “Effect on microtuber caffeic acid content” value ([4]; cv. Goldrush, 2 mM) was “significant depression” and the “Increase of microtuber chlorogenic acid content” value ([4]; cv. Goldrush, 2 mM) was 16.8%. The “Ascorbic acid of microtubers” value ([4]; cv. Goldrush, 2 mM H2O2 spray) was 0.269 ± 0.03^a mg/g, the “Caffeic acid of microtubers” value ([4]; cv. Goldrush, 2 mM H2O2 spray) was 0.008 ± 0.00^b mg/g and the “Chlorogenic acid of microtubers” value ([4]; cv. Goldrush, 2 mM H2O2 spray) was 0.561 ± 0.02^a mg/g. For the same compound, the “Ascorbic acid of microtubers” value ([4]; cv. Goldrush, 4 mM H2O2 spray) was 0.265 ± 0.00^a mg/g, the “Caffeic acid of microtubers” value ([4]; cv. Goldrush, 4 mM H2O2 spray) was 0.011 ± 0.00^a mg/g and the “Chlorogenic acid of microtubers” value ([4]; cv. Goldrush, 4 mM H2O2 spray) was 0.460 ± 0.02^b mg/g. For the same compound, the “Treatment effect on ascorbic acid content” value ([4]; cv. Onaway microtubers) was “not significant”, the “Increase of microtuber chlorogenic acid content” value ([4]; cv. Onaway, 2 mM) was 17.3% and the “Ascorbic acid of microtubers” value ([4]; cv. Onaway, 2 mM H2O2 spray) was 0.170 ± 0.02^a mg/g. For the same compound, the “Caffeic acid of microtubers” value ([4]; cv. Onaway, 2 mM H2O2 spray) was 0.002 ± 0.00^a mg/g, the “Chlorogenic acid of microtubers” value ([4]; cv. Onaway, 2 mM H2O2 spray) was 0.304 ± 0.02^a mg/g and the “Ascorbic acid of microtubers” value ([4]; cv. Onaway, 4 mM H2O2 spray) was 0.164 ± 0.02^a mg/g. For the same compound, the “Caffeic acid of microtubers” value ([4]; cv. Onaway, 4 mM H2O2 spray) was 0.001 ± 0.00^b mg/g and the “Chlorogenic acid of microtubers” value ([4]; cv. Onaway, 4 mM H2O2 spray) was 0.265 ± 0.04^ab mg/g.
With `O=C1O[C@H]([C@@H](O)CO)C(O)=C1O` [ascorbic acid] the “% reduction of ascorbic acid with storage” value ([5]; tubers of 5 foreign cultivars, 1 to 7 months storage) was 36.09% and the “% reduction; from 1 to 7 months storage (HPLC content)” value (“% reduction … (HPLC content)” below) [5] was 80.48%.
For `O=C(O)/C=C/c1ccc(O)c(O)c1` [caffeic acid], the “Dose needed to suppress IL-8 secretion to levels seen in control cultures” value [6] is given as 2000 µM and the “% reduction … (HPLC content)” value [5] is given as 92.16%.
For `O=C(/C=C/c1ccc(O)c(O)c1)O[C@@H]1C[C@](O)(C(=O)O)C[C@@H](O)[C@H]1O` [chlorogenic acid], the “Dose needed to suppress IL-8 secretion to levels seen in control cultures” value [6] is given as 2000 µM, the “Effect on body weight gain” value [7] is given as “no effect on body weight gain” and the Body weight gain [8, 11] is given as 9.7 ± 4.9^a g. For the same compound, the Body weight gain [8, 12] was 7.6 ± 4.1^a g, the Body weight gain [8, 13] was 9.8 ± 3.4^a g and the Body weight gain [8, 14] was 22.4 ± 0.8^b g. The Body weight gain [8, 15] was 18.2 ± 4.1^a,b,c g, the Body weight gain [8, 16] was 8.8 ± 5.3^c g and the “Effect of pure compound on body weight” value ([8]; female mice, up to 200 mg/kg diet) was “no statistically significant effect”. The “Effect of pure compound on body weight gain” value ([8]; male mice, 8-200 mg/kg diet) was “did not affect body weight gain” and the Carnitine palmitoyltransferase activity [9] was “unaffected”.
With `COc1cc(/C=C/C(=O)O)ccc1O` [ferulic acid] the Fasting blood glucose [10, 11] was 3.8 ± 0.6^a mmol/L, the Fasting blood glucose [10, 12] was 6.9 ± 1.1^a mmol/L and the Fasting blood glucose [10, 13] was 4.7 ± 1.6^a mmol/L. The Fasting blood glucose [10, 14] was 5.2 ± 0.6^b mmol/L, the Fasting blood glucose [10, 15] was 6.1 ± 1.2^a mmol/L and the Fasting blood glucose [10, 16] was 5.4 ± 0.2^b mmol/L. The “% reduction … (HPLC content)” value [5] was 90.21%, the Body weight gain [8, 11] was 9.7 ± 3.4^a g and the Body weight gain [8, 12] was 6.3 ± 1.2^a g. For the same compound, the Body weight gain [8, 13] was 8.8 ± 5.0^a g, the Body weight gain [8, 14] was 12.4 ± 3.7^a,b,c g and the Body weight gain [8, 15] was 10.8 ± 2.3^a,b,c g. The Body weight gain [8, 16] was 11.0 ± 6.5^a,b,c g and the “Effect of pure compound on body weight gain” value ([8]; both sexes, up to 500 mg/kg diet) was “ineffective in suppressing body weight gain”.
For `O=C(/C=C/c1ccc(O)c(O)c1)O[C@@H]1C[C@@](O)(C(=O)O)C[C@@H](O)[C@@H]1O` [neochlorogenic acid], the Carnitine palmitoyltransferase activity [9] is given as “enhanced”.

Reference: patent publication US9446063B2, “Methods for treating type-2 diabetes and obesity” (priority 2009, dated 2016)
